Reference: ChEMBL document CHEMBL1151496, “Nonpeptide GPIIB/IIIA inhibitors. 16. Thieno[2,3-b]thiophene -sulfonamides are potent inhibitors of platelet aggregation” (Bioorg Med Chem Lett, 1997)

How the values were obtained:
Homo sapiens [1] = organism: Homo sapiens; test: The compound was tested for the inhibition of platelet aggregation; format: functional
Homo sapiens [2] = organism: Homo sapiens; test: Measured by competition with fluorescent ligand L-762,745 for binding to resting human gel filtered platelets using flow cytometry; format: functional
Homo sapiens [3] = organism: Homo sapiens; test: Tested for the inhibition of [125 I] -L 692,884 binding to purified GPIIb/IIIa coated onto yttrium silicate Scintillation proximity assay fluomicrospheres
Canis familiaris [4] = test: Tested ex vivo inhibition of platelet aggregation after oral dose of 200 ug/kg through out 8 hr in dog; format: functional; conditions: Canis lupus familiaris
Canis familiaris [5] = test: Tested ex vivo inhibition of platelet aggregation after oral dose of 200 ug/kg through out 24 hr in dog; format: functional; conditions: Canis lupus familiaris

Structure (SMILES)	IC50 (Homo sapiens [1]) [nM]	ED50 (Homo sapiens [3]) [nM]	Kd (Homo sapiens [2]) [nM]	inhibition in vivo at 0.2 mg/kg (Canis familiaris [4]) [%]	inhibition in vivo at 0.2 mg/kg (Canis familiaris [5]) [%]
O=C(O)CCNC(=O)c1cc2sc(CCC3CCNCC3)cc2s1	500	–	~600	–	–
O=C(NC[C@H](NS(=O)(=O)c1ccc(Cl)cc1)C(=O)O)c1cc2cc(CCC3CCNCC3)sc2s1	11	0.09	0.026	–	–
O=C(NC[C@H](NS(=O)(=O)c1cccnc1)C(=O)O)c1cc2cc(CCCC3CCNCC3)sc2s1	21	–	–	–	–
CCCCS(=O)(=O)N[C@@H](CNC(=O)c1cc2cc(CCC3CCNCC3)sc2s1)C(=O)O	32	0.12	5.6	–	–
O=C(NC[C@H](NS(=O)(=O)c1cccs1)C(=O)O)c1cc2cc(CCC3CCNCC3)sc2s1	9	0.04	0.15	–	–
CCCCS(=O)(=O)N[C@@H](CNC(=O)c1cc2sc(CCC3CCNCC3)cc2s1)C(=O)O	10	0.21	3	–	–
O=C(O)CCNC(=O)c1cc2cc(CCC3CCNCC3)sc2s1	410	48	–	–	–
O=C(NC[C@H](NS(=O)(=O)c1cccnc1)C(=O)O)c1cc2cc(CC3CCNCC3)sc2s1	23	–	–	–	–
O=C(NCc1ccccc1)N[C@@H](CNC(=O)c1cc2cc(CCC3CCNCC3)sc2s1)C(=O)O	76	1.9	94	–	–

More lines, main results first:

IC50 (Homo sapiens [1]) [nM]	ED50 (Homo sapiens [3]) [nM]	Structure (SMILES)	Kd (Homo sapiens [2]) [nM]	inhibition in vivo at 0.2 mg/kg (Canis familiaris [4]) [%]	inhibition in vivo at 0.2 mg/kg (Canis familiaris [5]) [%]
36	2.6	O=C(NCc1ccccc1)N[C@@H](CNC(=O)c1cc2sc(CCC3CCNCC3)cc2s1)C(=O)O	33	–	–
8	–	O=C(NC[C@H](NS(=O)(=O)c1cccnc1)C(=O)O)c1cc2cc(CCC3CCNCC3)sc2s1	–	–	–
13	0.04	O=C(NC[C@H](NS(=O)(=O)c1cccs1)C(=O)O)c1cc2sc(CCC3CCNCC3)cc2s1	0.092	–	–
8	0.03	O=C(NC[C@H](NS(=O)(=O)c1ccccc1)C(=O)O)c1cc2cc(CCC3CCNCC3)sc2s1	0.023	> 80	50
8	0.08	O=C(NC[C@H](NS(=O)(=O)c1ccccc1)C(=O)O)c1cc2sc(CCC3CCNCC3)cc2s1	0.15	–	–
